In patent US10407425B2, “Indazole inhibitors of the Wnt signal pathway and therapeutic uses thereof” (Samumed, LLC, priority 2012, dated 2019):

System: Wnt activity
Test: Wnt activity reporter assay (SP5 promoter firefly luciferase in SW480 cells)
Format: cell-based
Settings: Homo sapiens; SW480 cells bearing SP5 promoter luciferase reporter; 24 h after compound addition; read-out: Wnt inhibition
Description: The above synthesized compounds were screened using the assay procedure for Wnt activity described below.
Reporter cell lines can be generated by stably transducing cells of cancer cell lines (e.g., colon cancer) with a lentiviral construct that include a wnt-responsive promoter driving expression of the firefly luciferase gene.
Lentiviral constructs can be made in which the SP5 promoter, a promoter having eight TCF/LEF binding sites derived from the SP5 promoter, is linked upstream of the firefly luciferase gene. The lentiviral constructs can also include a hygromycin resistance gene as a selectable marker. The SP5 promoter construct can be used to transduce SW480 cells, a colon cancer cell line having a mutated APC gene that generates a truncated APC protein, leading to de-regulated accumulation of β-catenin.
Cultured SW480 cells bearing a reporter construct can be distributed at approximately 10,000 cells per well into 384 well multiwell plates. Compounds from a small molecule compound library can then be added to the wells in half-log dilutions using a three micromolar top concentration. A series of control wells for each cell type receive only buffer and compound solvent. Twenty-four hours after the addition of compound, reporter activity for luciferases can be assayed, for example, by addition of the BrightGlo luminescence reagent (Promega) and the Victor3 plate reader (Perkin Elmer). Readings can be normalized to DMSO only treated cells, and normalized activities can then be used in the IC50 calculations.

Row | IC50 [nM] | SMILES
1 | 22 | c1cncc(-c2ccc3[nH]nc(-c4nc5c(-c6ccoc6)cncc5[nH]4)c3c2)c1 [Compound 315, 7-(Furan-3-yl)-2-(5-(pyridin-3-yl)-1H-indazol-3-yl)-3H-imidazo[4,5-c]pyridine]
2 | 66 | CCC(=O)Nc1cncc(-c2ccc3[nH]nc(-c4nc5c(-c6cccc(F)c6)cncc5[nH]4)c3c2)c1 [Compound 24, N-(5-(3-(7-(3-Fluorophenyl)-3H-imidazo[4,5-c]pyridin-2-yl)-1H-indazol-5-yl)pyridin-3-yl)propionamide]
3 | 5 | CC(C)(C)C(=O)Nc1cncc(-c2ccc3[nH]nc(-c4nc5c(-c6ccoc6)cncc5[nH]4)c3c2)c1 [Compound 319, N-(5-(3-(7-(Furan-3-yl)-3H-imidazo[4,5-c]pyridin-2-yl)-1H-indazol-5-yl)pyridin-3-yl)pivalamide]
4 | 33 | O=C(Cc1ccccc1)Nc1cncc(-c2ccc3[nH]nc(-c4nc5c(-c6ccoc6)cncc5[nH]4)c3c2)c1 [Compound 321, N-(5-(3-(7-(Furan-3-yl)-3H-imidazo[4,5-c]pyridin-2-yl)-1H-indazol-5-yl)pyridin-3-yl)-2-phenylacetamide]
5 | 739 | O=C(Nc1cncc(-c2ccc3[nH]nc(-c4nc5c(-c6ccoc6)cncc5[nH]4)c3c2)c1)C1CC1 [Compound 330, N-(5-(3-(7-(Furan-3-yl)-3H-imidazo[4,5-c]pyridin-2-yl)-1H-indazol-5-yl)pyridin-3-yl)cyclopropanecarboxamide]
6 | 26 | O=C(Nc1cncc(-c2ccc3[nH]nc(-c4nc5c(-c6ccoc6)cncc5[nH]4)c3c2)c1)C1CCCCC1 [Compound 333, N-(5-(3-(7-(Furan-3-yl)-3H-imidazo[4,5-c]pyridin-2-yl)-1H-indazol-5-yl)pyridin-3-yl)cyclohexanecarboxamide]
7 | 4 | CC(C)(C)C(=O)Nc1cncc(-c2ccc3[nH]nc(-c4nc5c(-c6ccc(F)cc6)cncc5[nH]4)c3c2)c1 [Compound 102, N-(5-(3-(7-(4-Fluorophenyl)-3H-imidazo[4,5-c]pyridin-2-yl)-1H-indazol-5-yl)pyridin-3-yl)pivalamide]
8 | 3.4 to 9 | CC(C)CC(=O)Nc1cncc(-c2ccc3[nH]nc(-c4nc5c(-c6cccc(F)c6)cncc5[nH]4)c3c2)c1 [Compound 10, N-(5-(3-(7-(3-fluorophenyl)-3H-imidazo[4,5-c]pyridin-2-yl)-1H-indazol-5-yl)pyridin-3-yl)-3-methylbutanamide]
9 | 12 | CC(C)(C)CC(=O)Nc1cncc(-c2ccc3[nH]nc(-c4nc5c(-c6cccc(F)c6)cncc5[nH]4)c3c2)c1 [Compound 90, N-(5-(3-(7-(3-Fluorophenyl)-3H-imidazo[4,5-c]pyridin-2-yl)-1H-indazol-5-yl)pyridin-3-yl)-3,3-dimethylbutanamide]

The next lines start with the molecule.

Row | SMILES | IC50 [nM]
10 | FC1(F)CCN(Cc2cncc(-c3ccc4[nH]nc(-c5nc6c(-c7cccnc7)cncc6[nH]5)c4c3)c2)C1 [Compound 339, 2-(5-(5-((3,3-Difluoropyrrolidin-1-yl)methyl)pyridin-3-yl)-1H-indazol-3-yl)-7-(pyridin-3-yl)-3H-imidazo[4,5-c]pyridine] | 39
11 | c1cncc(-c2ccc3[nH]nc(-c4nc5c(N6CCOCC6)cncc5[nH]4)c3c2)c1 [Compound 6, 4-(2-(5-(pyridin-3-yl)-1H-indazol-3-yl)-3H-imidazo[4,5-c]pyridin-7-yl)morpholine] | 10 to 13
12 | CC(C)CC(=O)Nc1cncc(-c2ccc3[nH]nc(-c4nc5c(-c6cccs6)cncc5[nH]4)c3c2)c1 [Compound 397, 3-Methyl-N-(5-(3-(7-(thiophen-2-yl)-3H-imidazo[4,5-c]pyridin-2-yl)-1H-indazol-5-yl)pyridin-3-yl)butanamide] | 0.1
13 | Fc1ccccc1-c1cncc2[nH]c(-c3n[nH]c4ccc(-c5cncc(CN6CCCCC6)c5)cc34)nc12 [Compound 127, 7-(2-Fluorophenyl)-2-(5-(5-(piperidin-1-ylmethyl)pyridin-3-yl)-1H-indazol-3-yl)-3H-imidazo[4,5-c]pyridine] | 14
14 | CN1CCN(c2cncc3[nH]c(-c4n[nH]c5ccc(-c6cncc(N7CCOCC7)c6)cc45)nc23)CC1 [Compound 5, 4-(5-(3-(7-(4-methylpiperazin-1-yl)-3H-imidazo[4,5-c]pyridin-2-yl)-1H-indazol-5-yl)pyridin-3-yl)morpholine] | 67 to 98
15 | c1ncc(-c2ccc3[nH]nc(-c4nc5c(N6CCCCC6)cncc5[nH]4)c3c2)cc1CN1CCCC1 [Compound 211, 7-(Piperidin-1-yl)-2-(5-(5-(pyrrolidin-1-ylmethyl)pyridin-3-yl)-1H-indazol-3-yl)-3H-imidazo[4,5-c]pyridine] | 420
16 | O=C(Nc1cncc(-c2ccc3[nH]nc(-c4nc5ccncc5[nH]4)c3c2)c1)C1CCCCC1 [Compound 286, N-(5-(3-(3H-Imidazo[4,5-c]pyridin-2-yl)-1H-indazol-5-yl)pyridin-3-yl)cyclohexanecarboxamide] | 569
17 | Fc1cccc(-c2cncc3[nH]c(-c4n[nH]c5ccc(-c6cccnc6)cc45)nc23)c1 [Compound 15, 7-(3-fluorophenyl)-2-(5-(pyridin-3-yl)-1H-indazol-3-yl)-3H-imidazo[4,5-c]pyridine] | 10 to 25
18 | O=C(Nc1cncc(-c2ccc3[nH]nc(-c4nc5c(-c6cccc(F)c6)cncc5[nH]4)c3c2)c1)C1CCCCC1 [Compound 94, N-(5-(3-(7-(3-Fluorophenyl)-3H-imidazo[4,5-c]pyridin-2-yl)-1H-indazol-5-yl)pyridin-3-yl)cyclohexanecarboxamide] | 11
19 | CC(C)CC(=O)Nc1cncc(-c2ccc3[nH]nc(-c4nc5c(-c6cc(F)cc(CNS(C)(=O)=O)c6)cncc5[nH]4)c3c2)c1 [Compound 373, N-(5-(3-(7-(3-Fluoro-5-(methylsulfonamidomethyl)phenyl)-3H-imidazo[4,5-c]pyridin-2-yl)-1H-indazol-5-yl)pyridin-3-yl)-3-methylbutanamide] | 5
20 | Fc1ccc(-c2cncc3[nH]c(-c4n[nH]c5ccc(-c6cncc(CN7CCCC7)c6)cc45)nc23)cc1 [Compound 107, 7-(4-Fluorophenyl)-2-(5-(5-(pyrrolidin-1-ylmethyl)pyridin-3-yl)-1H-indazol-3-yl)-3H-imidazo[4,5-c]pyridine] | 52
21 | O=C(Nc1cncc(-c2ccc3[nH]nc(-c4nc5c(-c6cccc(F)c6)cncc5[nH]4)c3c2)c1)C1CC1 [Compound 91, N-(5-(3-(7-(3-Fluorophenyl)-3H-imidazo[4,5-c]pyridin-2-yl)-1H-indazol-5-yl)pyridin-3-yl)cyclopropanecarboxamide] | 2
22 | CN(C)Cc1cncc(-c2ccc3[nH]nc(-c4nc5c(-c6cncc(F)c6)cncc5[nH]4)c3c2)c1 [Compound 16, 1-(5-(3-(7-(5-fluoropyridin-3-yl)-3H-imidazo[4,5-c]pyridin-2-yl)-1H-indazol-5-yl)pyridin-3-yl)-N,N-dimethylmethanamine] | 164 to 200
23 | O=C(Nc1cncc(-c2ccc3[nH]nc(-c4nc5ccncc5[nH]4)c3c2)c1)c1ccccc1 [Compound 275, N-(5-(3-(3H-Imidazo[4,5-c]pyridin-2-yl)-1H-indazol-5-yl)pyridin-3-yl)benzamide] | 141
24 | CN(C)Cc1cncc(-c2ccc3[nH]nc(-c4nc5c(-c6ccccn6)cncc5[nH]4)c3c2)c1 [Compound 186, N,N-Dimethyl-1-(5-(3-(7-(pyridin-2-yl)-3H-imidazo[4,5-c]pyridin-2-yl)-1H-indazol-5-yl)pyridin-3-yl)methanamine] | 38
25 | CN1CCN(c2cncc3[nH]c(-c4n[nH]c5ccc(-c6cncc(NC(=O)Cc7ccccc7)c6)cc45)nc23)CC1 [Compound 252, N-(5-(3-(7-(4-Methylpiperazin-1-yl)-3H-imidazo[4,5-c]pyridin-2-yl)-1H-indazol-5-yl)pyridin-3-yl)-2-phenylacetamide] | 650
26 | FC1(F)CCN(Cc2cncc(-c3ccc4[nH]nc(-c5nc6c(-c7ccsc7)cncc6[nH]5)c4c3)c2)C1 [Compound 346, 2-(5-(5-((3,3-Difluoropyrrolidin-1-yl)methyl)pyridin-3-yl)-1H-indazol-3-yl)-7-(thiophen-3-yl)-3H-imidazo[4,5-c]pyridine] | 2
27 | c1cc(-c2cncc3[nH]c(-c4n[nH]c5ccc(-c6cncc(CNCC7CCCC7)c6)cc45)nc23)cs1 [Compound 311, 1-Cyclopentyl-N-((5-(3-(7-(thiophen-3-yl)-3H-imidazo[4,5-c]pyridin-2-yl)-1H-indazol-5-yl)pyridin-3-yl)methyl)methanamine] | 58
28 | CC(C)CC(=O)Nc1cncc(-c2ccc3[nH]nc(-c4nc5c(N6CCN(C)CC6)cncc5[nH]4)c3c2)c1 [Compound 1, 3-methyl-N-(5-(3-(7-(4-methylpiperazin-1-yl)-3H-imidazo[4,5-c]pyridin-2-yl)-1H-indazol-5-yl)pyridin-3-yl)butanamide] | 140 to 150
29 | c1cc(-c2cncc3[nH]c(-c4n[nH]c5ccc(-c6cncc(CNCC7CCCC7)c6)cc45)nc23)ccn1 [Compound 173, 1-Cyclopentyl-N-((5-(3-(7-(pyridin-4-yl)-3H-imidazo[4,5-c]pyridin-2-yl)-1H-indazol-5-yl)pyridin-3-yl)methyl)methanamine] | 845
30 | c1cc(-c2cncc3[nH]c(-c4n[nH]c5ccc(-c6cncc(CN7CCCCC7)c6)cc45)nc23)ccn1 [Compound 164, 2-(5-(5-(Piperidin-1-ylmethyl)pyridin-3-yl)-1H-indazol-3-yl)-7-(pyridin-4-yl)-3H-imidazo[4,5-c]pyridine] | > 6000
